For the assay, the target named is T1, Trx-rHelja (Helianthus annuus, UniProt A0A059VAE5).
T1 construct: N-terminal thioredoxin, His6 and enterokinase-site tags kept; E. coli Rosetta-gami2 (DE3) pLysS; about 35 kDa fusion (Helja about 20 kDa)
As to the kind of experiment: affinity chromatography on D-mannose-agarose, elution with mannose, SDS-PAGE. In kind it is binding. The conditions noted are these: 50 mM Tris-HCl pH 7.5, 100 mM NaCl; D-mannose immobilised on agarose; eluted with 200 mM free mannose.

One compound from article PMC5297726, “Anti-Neuroblastoma Properties of a Recombinant Sunflower Lectin” (International Journal of Molecular Sciences, 2017) can be followed below.

T1 sequence (A0A059VAE5 entry or part of it): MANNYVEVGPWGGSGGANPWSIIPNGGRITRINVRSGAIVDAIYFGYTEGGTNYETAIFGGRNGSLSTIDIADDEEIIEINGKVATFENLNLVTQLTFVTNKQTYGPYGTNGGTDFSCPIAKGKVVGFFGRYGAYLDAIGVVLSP

For `OC[C@H]1OC(O)[C@@H](O)[C@@H](O)[C@@H]1O` (stereo partly shown) [mannose], the “affinity chromatography on D-mannose-agarose, elution with mannose, SDS-PAGE” value is “the recombinant protein was bounded to the matrix and eluted with mannose”.
